Data reported in ChEMBL document CHEMBL1201862, “PubChem BioAssay data set” (2004).
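Grown in 96-well plates, cells were treated for 48 hours with each compound at five concentrations. Insufficient inhibition: endpoint recorded as highest concentration tested. GI50 = concentration required for 50% inhibition of growth.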 Activity calls are given as the source filed them. Cut-off read from the data, not from the text of the source: active = GI50 up to about 1.1 µM and inactive = higher.

What was measured:
Test in all cases: inhibition of tumour cell growth, NCI panel, 48 h
[1] = test system: A498
[2] = test system: A549
[3] = test system: CCRF-CEM
[4] = test system: COLO 205
[5] = test system: EKVX
[6] = test system: HT-29
[7] = test system: Hs-578T
[8] = test system: IGROV-1
[9] = test system: LOX IMVI
[10] = test system: OVCAR-8
[11] = test system: RXF 393
[12] = test system: SF-268
[13] = test system: SK-MEL-28
[14] = test system: SK-MEL-2
[15] = test system: T47D
[16] = test system: UACC-257
[17] = test system: UO-31
[18] = test system: NCI-H460
[19] = test system: UACC-62
[20] = test system: SR

Measured: GI50

CC(=O)NC(C)c1ccc(/N=N/N2CCCC2)cc1 (stereo unspecified)
inactive: [1] > 100 µM | [2] > 100 µM | [3] > 100 µM | [4] > 100 µM | [5] > 100 µM | [6] > 100 µM | [7] > 100 µM | [8] > 100 µM | [9] > 100 µM | [10] > 100 µM | [11] > 100 µM | [12] > 100 µM | [13] > 100 µM | [14] > 100 µM | [15] > 100 µM | [16] > 100 µM | [17] > 100 µM

CCOc1cc(C=O)c2c(ccc3ccc(OC)c(OC)c32)c1OC
inactive: [2] 46.1 µM | [3] 28.2 µM | [4] 32.5 µM | [5] 7.1 µM | [6] 37.5 µM | [7] 37.8 µM | [8] 89.9 µM | [9] 32.4 µM | [18] 20 µM | [10] 50 µM | [11] > 100 µM | [12] > 100 µM | [13] 89.9 µM | [14] 36.8 µM | [15] 35.7 µM | [16] 59.3 µM | [19] 67.8 µM | [17] 66.8 µM

COc1cc(-c2nc(SC)nc3c2CCc2ccccc2-3)cc(OC)c1OC
inactive: [1] > 100 µM | [2] > 100 µM | [3] > 100 µM | [4] 53.5 µM | [5] 29.1 µM | [6] 50.1 µM | [7] > 100 µM | [8] 65.3 µM | [9] 91.8 µM | [10] 50.6 µM | [11] 36 µM | [12] 91.2 µM | [13] > 100 µM | [14] > 100 µM | [15] 26.8 µM | [16] 90.8 µM | [19] 82.4 µM | [17] 46.3 µM

O=c1cccc(C2CC(CO)C3CCCCN3C2)[nH]1 (stereo unspecified)
inactive: [1] > 100 µM | [2] > 100 µM | [3] > 100 µM | [4] > 100 µM | [5] > 100 µM | [6] > 100 µM | [7] > 100 µM | [8] > 100 µM | [9] > 100 µM | [18] > 100 µM | [10] > 100 µM | [12] > 100 µM | [13] > 100 µM | [14] > 100 µM | [15] > 100 µM | [16] > 100 µM | [19] > 100 µM | [17] > 100 µM

CCOC(=O)/C(C(=O)Nc1cccc(C(F)(F)F)c1)=C(/N)N1CCOCC1
inactive: [1] > 100 µM | [2] > 100 µM | [3] > 100 µM | [4] > 100 µM | [5] > 100 µM | [6] > 100 µM | [7] > 100 µM | [8] > 100 µM | [9] > 100 µM | [18] > 100 µM | [10] > 100 µM | [11] > 100 µM | [12] > 100 µM | [13] > 100 µM | [14] > 100 µM | [15] > 100 µM | [16] > 100 µM | [19] > 100 µM

COC(=O)C1(C(=O)OC)N=C(C)OC1c1ccoc1 (stereo unspecified)
inactive: [1] > 100 µM | [2] > 100 µM | [3] > 100 µM | [4] > 100 µM | [5] > 100 µM | [9] > 100 µM | [18] > 100 µM | [10] > 100 µM | [11] > 100 µM | [13] > 100 µM | [14] > 100 µM | [20] > 100 µM | [15] > 100 µM | [16] > 100 µM | [19] > 100 µM | [17] > 100 µM

CCCCS(=O)(=O)CCC(N)P(=O)(O)O (stereo unspecified)
inactive: [2] > 100 µM | [3] > 100 µM | [4] > 100 µM | [5] > 100 µM | [6] > 100 µM | [7] > 100 µM | [8] > 100 µM | [9] > 100 µM | [18] > 100 µM | [10] > 100 µM | [12] > 100 µM | [13] > 100 µM | [14] > 100 µM | [20] > 100 µM | [15] > 100 µM | [16] > 100 µM | [19] > 100 µM | [17] > 100 µM

NC(=O)OCc1c(-c2ccccc2)nn(-c2ccccc2)c1COC(N)=O
inactive: [2] > 100 µM | [4] > 100 µM | [6] > 100 µM | [8] > 10 µM | [10] > 100 µM | [11] > 100 µM | [12] > 100 µM | [13] > 100 µM | [14] > 100 µM | [15] > 100 µM | [16] > 100 µM | [19] > 100 µM | [17] > 100 µM
